# Reference: patent US20140228287A1, “1-[(3-CYANO-PYRIDIN-2-YL)METHYL]-3-METHYL-7-(2-BUTYN-1-YL)-8-[3-(R)-AMINO-PIPERIDIN-1-YL]-AXANTHINE FOR THE TREATMENT OF A METABOLIC DISORDER OF A PREDOMINANTLY CARNIVOROUS NON-HUMAN ANIMAL” (BOEHRINGER INGELHEIM VETMEDICA GMBH, priority 2010, published 2014)
# Structures can show the parent of a compound that is named as a salt.
# Key:
# [1] = Multiple dose study (14 days) in cats: adverse events; type: in vivo, cat; details: 1, 3, 9 mg/animal once daily oral for 14 days
# Procedure: The aim of this study was to investigate the PK/PD effects of 1-[(3-cyano-pyridin-2-yl)methyl]-3-methyl-7-(2-butyn-1-yl)-8-[3-(R)-amino-piperidin-1-yl]-xanthine in cats following repeated oral administration of 0, 1, 3 and 9 mg/animal over 14 days corresponding to a dose of 0, 0.25, 0.75 and 2.25 mg/kg body weight for a cat weighing 4 kg. (Dosages were based on the free base: 1 mg 1-[(3-cyano-pyridin-2-yl)methyl]-3-methyl-7-(2-butyn-1-yl)-8-[3-(R)-amino-piperidin-1-yl]-xanthine monohydrochloride corresponds to 0.923 mg 1-[(3-cyano-pyridin-2-yl)methyl]-3-methyl-7-(2-butyn-1-yl)-8-[3-(R)-amino-piperidin-1-yl]-xanthine free base).
# For this purpose, twelve clinically healthy male adult domestic short hair cats with a body weight range of 3.5-4.8 kg were used. The animals were randomly allocated to 4 groups, 3 animals per group. All animals were treated once daily orally for 14 days (i.e. on days 0-13). The test article was administered via capsules at doses of 1 (group II), 3 (group III) or 9 (group IV) mg of the monohydrochloride compound per animal; group I received placebo serving as controls. Blood samples for PK and PD (DPP IV activity) investigations were drawn at 0 h (i.e. prior to the 1st treatment), 0.5, 1, 2, 4, 8, 12 and 24 h after the 1st treatment as well as 24 h after the 3rd, 5th, 7th, 9th, 11th and 13th treatment and 0.5, 1, 2, 4, 8, 12 and 24 h after the 14th treatment.
# DPP IV = target: T1, DPP IV (Felis catus, UniProt Q9N2I7); assay: PK/PD studies in cats, summary; type: in vivo, cat
# T1 construct: Blood samples for the determination of this compound and DPP IV activity were collected; from tissue; host or cells: plasma of domestic short hair / purpose-bred cats dosed orally
# T1 sequence (Q9N2I7 38-765 limits assumed): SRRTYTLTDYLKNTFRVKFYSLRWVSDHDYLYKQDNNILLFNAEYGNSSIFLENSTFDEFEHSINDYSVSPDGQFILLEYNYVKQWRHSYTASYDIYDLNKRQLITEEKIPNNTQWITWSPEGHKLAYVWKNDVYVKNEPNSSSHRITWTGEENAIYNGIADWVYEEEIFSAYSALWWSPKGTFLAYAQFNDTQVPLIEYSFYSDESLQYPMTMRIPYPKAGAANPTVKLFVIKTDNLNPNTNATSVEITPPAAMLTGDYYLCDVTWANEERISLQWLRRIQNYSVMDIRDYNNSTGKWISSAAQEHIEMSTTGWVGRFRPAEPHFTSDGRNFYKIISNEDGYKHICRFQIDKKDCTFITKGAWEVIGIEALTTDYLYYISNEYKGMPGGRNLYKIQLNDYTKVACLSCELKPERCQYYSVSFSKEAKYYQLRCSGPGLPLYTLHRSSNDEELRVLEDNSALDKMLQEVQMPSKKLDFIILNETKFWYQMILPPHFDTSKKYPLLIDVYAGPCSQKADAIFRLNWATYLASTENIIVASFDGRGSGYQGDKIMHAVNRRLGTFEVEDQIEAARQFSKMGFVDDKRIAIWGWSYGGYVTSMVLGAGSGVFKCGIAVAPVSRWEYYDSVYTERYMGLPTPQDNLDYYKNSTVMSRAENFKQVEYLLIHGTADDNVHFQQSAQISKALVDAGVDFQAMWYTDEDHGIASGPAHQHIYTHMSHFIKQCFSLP
# Procedure: PK/PD studies to measure the effect of different doses of 1-[(3-cyano-pyridin-2-yl)methyl]-3-methyl-7-(2-butyn-1-yl)-8-[3-(R)-amino-piperidin-1-yl]-xanthine CL on DPP IV activity, are presented in the experimental part of this application. […] Larger degrees of DPP IV inhibition, e.g. more than 80% in 24 h can be reached by increased doses. The duration of DPP IV inhibition can be prolonged with higher dosages.
# [2] = system: insulin-resistant fa/fa rats; assay: Delayed OGTT in insulin-resistant fa/fa rats; type: in vivo, rat; details: 3 mg/kg 16 h before OGTT
# Procedure: Male Zucker Fatty (fa/fa) rats (Ico-Zucker-fa/fa (Orl)) were obtained from Iffa (France). Animals were fed ad libitum with a standard pelleted diet (Diet No. 3438, Provimi Kliba, Switzerland) and had free access to water. Animals were housed in groups with a 12 h/12 h light/dark cycle (lights out between 6 p.m. and 6 a.m.). The rats were used for the experiments between 7 and 12 weeks of age.
# fa/fa rats (n=6 per group) were treated like the mice in Example 3, delayed OGTT. 1-[(3-cyano-pyridin-2-yl)methyl]-3-methyl-7-(2-butyn-1-yl)-8-[3-(R)-amino-piperidin-1-yl]-xanthine was dosed at 3 mg/kg 16 hours before the OGTT.
# GLP-1 was measured using a commercially available GLP-1 (active) ELISA Kit (Catalog# EGLP-35K, Linco Research Inc., St. Charles/Mo., USA). Insulin was measured using a commercially available Rat Insulin ELISA Kit (Catalog#90060, Crystal Chem. Inc., Downers Grove/IL, USA).
# GLP-1 = assay: Single dose study (1.0/5.0/10.0 mg/kg) in cats: GLP-1 after feeding; type: in vivo, cat; details: single oral 1, 5, 10 mg/kg; feeding at 8 h after treatment
# Procedure: Twelve clinically healthy male adult domestic short hair cats with a body weight range of 3.5-4.7 kg were used in this study. All animals were treated orally once via a stomach tube. Blood samples for pharmacokinetic and pharmacodynamic (DPP IV activity) investigations were drawn at 0 h (i.e. prior to treatment), 30 min as well as 1, 2, 4, 8, 8.5, 9, 12, 24, 36, 48, 72, 84 and 96 h after treatment. Blood samples for pharmacodynamic (glucagon-like peptide 1 concentrations) investigations were drawn at −16 (i.e. prior to feeding), −15.5, −15 h as well as at 8 h (i.e. prior to feeding), 8.5 and 9 h after treatment.
smiles,measurement,setting,value
CC#CCn1c(N2CCC[C@@H](N)C2)nc2c1c(=O)n(Cc1ncccc1C#N)c(=O)n2C [1-[(3-cyano-pyridin-2-yl)methyl]-3-methyl-7-(2-butyn-1-yl)-8-[3-(R)-amino-piperidin-1-yl]-xanthine monohydrochloride],adverse events,[1],No adverse events specifically attributable to the test article were noted
same,doses leading to a significant DPP IV inhibition,DPP IV,more than 0.1 mg/kg
same,DPP IV inhibition in 24 h,"DPP IV; achieved with 1 to 3 mg/kg (˜3 to 9 mg per cat, or 4 to 30 nmol/l in cat plasma)",more than 70%
same,GLP-1 levels vs. control group,[2],elevated vs. the control group at all time points
same,"Glucose AUC 0-90 min, Change versus control, Mean Diff. %",[2],−34.4%
same,"Glucose AUC 0-90 min, Mean",[2],177.00 mM·min
same,"Glucose AUC 0-90 min, Median",[2],165.00 mM·min
same,peak plasma insulin levels compared to vehicle treatment,[2],further elevations in peak plasma insulin levels
same,reduction of area under the glucose excursion curve,[2],34.4%
same,rise of GLP-1 levels vs. baseline after the glucose stimulus,[2],93%
same,"Glucose, Change versus baseline, Mean Diff. %",[2]; 30 min,71.7%
same,"Glucose, Change versus control, Mean Diff. %",[2]; 30 min,−29.0%
same,"Glucose, Mean",[2]; 30 min,7.90 mM
same,"Glucose, Median",[2]; 30 min,8.00 mM
same,"Glucose, Change versus baseline, Mean Diff. %",[2]; 60 min,39.1%
same,"Glucose, Change versus control, Mean Diff. %",[2]; 60 min,−23.0%
same,"Glucose, Mean",[2]; 60 min,6.40 mM
same,"Glucose, Median",[2]; 60 min,6.30 mM
same,"Glucose, Change versus baseline, Mean Diff. %",[2]; 90 min,34.8%
same,"Glucose, Change versus control, Mean Diff. %",[2]; 90 min,−2.1%
same,"Glucose, Mean",[2]; 90 min,6.20 mM
same,"Glucose, Median",[2]; 90 min,6.30 mM
same,"Glucose, Change versus baseline, Mean Diff. %",[2]; 120 min,31.3%
same,"Glucose, Change versus control, Mean Diff. %",[2]; 120 min,5.7%
same,"Glucose, Mean",[2]; 120 min,6.04 mM
same,"Glucose, Median",[2]; 120 min,5.70 mM
same,"Glucose, Change versus baseline, Mean Diff. %",[2]; 180 min,29.6%
same,"Glucose, Change versus control, Mean Diff. %",[2]; 180 min,13.2%
same,"Glucose, Mean",[2]; 180 min,5.96 mM
same,"Glucose, Median",[2]; 180 min,6.10 mM
same,"Glucose, Change versus control, Mean Diff. %",[2]; Pre-load,−15.6%
same,"Glucose, Mean",[2]; Pre-load,4.60 mM
same,"Glucose, Median",[2]; Pre-load,4.40 mM
same,mean GLP-1 concentration after feeding,GLP-1,an increase of the mean GLP-1 concentration was observed after feeding
